For the first assay, the system named is Alopecurus myosuroides (ALOMY). Briefly: Pre-emergence biological efficacy, glasshouse pot test. It counts as in vivo. To be noted: 312 h, 1000 g/ha, after 13 days, 100=total damage, 0=no damage, read-out: Percentage damage caused to weed species ALOMY. Here is the method: (§1) Seeds of Alopecurus myosuroides (ALOMY), Setaria faberi (SETFA), Echinochloa crus-galli (ECHCG), Solanum nigrum (SOLNI), Amaranthus retroflexus (AMARE) and Ipomea hederaceae (IPOHE) were sown in standard soil in pots. After cultivation for one day under controlled conditions in a glasshouse (at 24/16° C., day/night; 14 hours light; 65% humidity), the plants were sprayed with an aqueous spray solution derived from the formulation of the technical active ingredient in acetone/water (50:50) solution containing 0.5% Tween 20 (polyoxyethylene sorbitan monolaurate, CAS RN 9005-64-5) to give a final dose of 250 or 1000 g/ha of test compound.
(§2) The test plants were then grown under controlled conditions in the glasshouse (at 24/16° C., day/night; 14 hours light; 65% humidity) and watered twice daily. After 13 days the test was evaluated (100=total damage to plant; 0=no damage to plant).
In the case of `COC(=O)c1nc(-c2cccnc2OC)nc(N)c1Cl` [Compound 2-154, 4-Amino-5-chloro-6-methoxycarbonyl-2-(2-methoxypyridin-3-yl)-pyrimidine], the pest or weed control at 1000 g/ha was found to be 0%.
Still for that read-out and setting: the same measure for `COC(=O)c1nc(-c2ccc(OC)nc2)nc(N)c1Cl` [Compound 2-155, 4-Amino-5-chloro-6-methoxycarbonyl-2-(2-methoxypyridin-5-yl)-pyrimidine]: 0%.

For another assay, the system named is Amaranthus retroflexus (AMARE). The assay is described as above. It counts as in vivo. The conditions noted are these: 312 h, 1000 g/ha, after 13 days, 100=total damage, 0=no damage, read-out: Percentage damage caused to weed species AMARE. On the procedure:
as §1, §2
With `COC(=O)c1nc(-c2cccnc2OC)nc(N)c1Cl` [Compound 2-154, 4-Amino-5-chloro-6-methoxycarbonyl-2-(2-methoxypyridin-3-yl)-pyrimidine], the pest or weed control at 1000 g/ha is 0%.
On to `COC(=O)c1nc(-c2ccc(OC)nc2)nc(N)c1Cl` [Compound 2-155, 4-Amino-5-chloro-6-methoxycarbonyl-2-(2-methoxypyridin-5-yl)-pyrimidine], for which the pest or weed control at 1000 g/ha is 20%.

The subject of a further assay is Echinochloa crus-galli (ECHCG). The description is as above. To be noted: 312 h, 1000 g/ha, after 13 days, 100=total damage, 0=no damage, read-out: Percentage damage caused to weed species ECHCG. It counts as in vivo. Here is the method:
as §1, §2
Turning to `COC(=O)c1nc(-c2cccnc2OC)nc(N)c1Cl` [Compound 2-154, 4-Amino-5-chloro-6-methoxycarbonyl-2-(2-methoxypyridin-3-yl)-pyrimidine], the pest or weed control at 1000 g/ha turned out to be 0%.
For the compound `COC(=O)c1nc(-c2ccc(OC)nc2)nc(N)c1Cl` [Compound 2-155, 4-Amino-5-chloro-6-methoxycarbonyl-2-(2-methoxypyridin-5-yl)-pyrimidine], the pest or weed control at 1000 g/ha came to 0%.

Another assay relates to Ipomea hederaceae (IPOHE). Described as above. It counts as in vivo. The conditions noted are these: Ipomoea hederacea, 312 h, 1000 g/ha, after 13 days, 100=total damage, 0=no damage, read-out: Percentage damage caused to weed species IPOHE. Here is the method:
as §1, §2
Consider `COC(=O)c1nc(-c2cccnc2OC)nc(N)c1Cl` [Compound 2-154, 4-Amino-5-chloro-6-methoxycarbonyl-2-(2-methoxypyridin-3-yl)-pyrimidine], for which the pest or weed control at 1000 g/ha came out at 0%.
The same measure, in the same setting: the same measure for `COC(=O)c1nc(-c2ccc(OC)nc2)nc(N)c1Cl` [Compound 2-155, 4-Amino-5-chloro-6-methoxycarbonyl-2-(2-methoxypyridin-5-yl)-pyrimidine]: 0%.

Another assay deals with Setaria faberi (SETFA). The assay is described as above. It counts as in vivo. To be noted: 312 h, 1000 g/ha, after 13 days, 100=total damage, 0=no damage, read-out: Percentage damage caused to weed species SETFA. Here is the method: as §1, §2
With `COC(=O)c1nc(-c2cccnc2OC)nc(N)c1Cl` [Compound 2-154, 4-Amino-5-chloro-6-methoxycarbonyl-2-(2-methoxypyridin-3-yl)-pyrimidine], the pest or weed control at 1000 g/ha was 0%.
On the same count and under the same terms, in the case of `COC(=O)c1nc(-c2ccc(OC)nc2)nc(N)c1Cl` [Compound 2-155, 4-Amino-5-chloro-6-methoxycarbonyl-2-(2-methoxypyridin-5-yl)-pyrimidine] it was 0%.

The next assay relates to Solanum nigrum (SOLNI). The assay is described as above. The conditions noted are these: 312 h, 1000 g/ha, after 13 days, 100=total damage, 0=no damage, read-out: Percentage damage caused to weed species SOLNI. It counts as in vivo. Here is the method: as §1, §2
On to `COC(=O)c1nc(-c2cccnc2OC)nc(N)c1Cl` [Compound 2-154, 4-Amino-5-chloro-6-methoxycarbonyl-2-(2-methoxypyridin-3-yl)-pyrimidine], for which the pest or weed control at 1000 g/ha stood at 20%.
Still for that read-out and setting: the same measure for `COC(=O)c1nc(-c2ccc(OC)nc2)nc(N)c1Cl` [Compound 2-155, 4-Amino-5-chloro-6-methoxycarbonyl-2-(2-methoxypyridin-5-yl)-pyrimidine]: 20%.

The subject of a further assay is Alopecurus myosuroides (ALOMY). Briefly: Post-emergence biological efficacy, glasshouse pot test. It counts as in vivo. The conditions noted are these: 312 h, 1000 g/ha, after 13 days, 100=total damage, 0=no damage, read-out: Percentage damage caused to weed species ALOMY. On the procedure:
as §1, with “8 days” for “one day”
(§3) The test plants were then grown on under controlled conditions in a glasshouse (at 24/16° C., day/night; 14 hours light; 65% humidity) and watered twice daily. After 13 days the test was evaluated (100=total damage to plant; 0=no damage to plant).
As to `COC(=O)c1nc(-c2cccnc2OC)nc(N)c1Cl` [Compound 2-154, 4-Amino-5-chloro-6-methoxycarbonyl-2-(2-methoxypyridin-3-yl)-pyrimidine], the pest or weed control at 1000 g/ha turned out to be 0%.
On the same count and under the same terms, in the case of `COC(=O)c1nc(-c2ccc(OC)nc2)nc(N)c1Cl` [Compound 2-155, 4-Amino-5-chloro-6-methoxycarbonyl-2-(2-methoxypyridin-5-yl)-pyrimidine] it was 0%.

The subject of the next assay is Amaranthus retroflexus (AMARE). The description is as above. It counts as in vivo. To be noted: 312 h, 1000 g/ha, after 13 days, 100=total damage, 0=no damage, read-out: Percentage damage caused to weed species AMARE. Here is the method: as §1, with “8 days” for “one day”
as §3
As for `COC(=O)c1nc(-c2cccnc2OC)nc(N)c1Cl` [Compound 2-154, 4-Amino-5-chloro-6-methoxycarbonyl-2-(2-methoxypyridin-3-yl)-pyrimidine], the pest or weed control at 1000 g/ha was found to be 70%.
On to `COC(=O)c1nc(-c2ccc(OC)nc2)nc(N)c1Cl` [Compound 2-155, 4-Amino-5-chloro-6-methoxycarbonyl-2-(2-methoxypyridin-5-yl)-pyrimidine], for which the pest or weed control at 1000 g/ha was 100%.

The next assay relates to Echinochloa crus-galli (ECHCG). The description is as above. It counts as in vivo. The conditions noted are these: 312 h, 1000 g/ha, after 13 days, 100=total damage, 0=no damage, read-out: Percentage damage caused to weed species ECHCG. On the procedure:
as §1, with “8 days” for “one day”
as §3
For the compound `COC(=O)c1nc(-c2cccnc2OC)nc(N)c1Cl` [Compound 2-154, 4-Amino-5-chloro-6-methoxycarbonyl-2-(2-methoxypyridin-3-yl)-pyrimidine], the pest or weed control at 1000 g/ha is 0%.
Same read-out and setting: the same measure for `COC(=O)c1nc(-c2ccc(OC)nc2)nc(N)c1Cl` [Compound 2-155, 4-Amino-5-chloro-6-methoxycarbonyl-2-(2-methoxypyridin-5-yl)-pyrimidine]: 80%.

The next assay has as its system Ipomea hederaceae (IPOHE). Described as above. To be noted: Ipomoea hederacea, 312 h, 1000 g/ha, after 13 days, 100=total damage, 0=no damage, read-out: Percentage damage caused to weed species IPONE. It counts as in vivo. Here is the method: as §1, with “8 days” for “one day”
as §3
Turning to `COC(=O)c1nc(-c2cccnc2OC)nc(N)c1Cl` [Compound 2-154, 4-Amino-5-chloro-6-methoxycarbonyl-2-(2-methoxypyridin-3-yl)-pyrimidine], the pest or weed control at 1000 g/ha was 20%.
Still for that read-out and setting: in the case of `COC(=O)c1nc(-c2ccc(OC)nc2)nc(N)c1Cl` [Compound 2-155, 4-Amino-5-chloro-6-methoxycarbonyl-2-(2-methoxypyridin-5-yl)-pyrimidine] it was 70%.

The test system of another assay is Setaria faberi (SETFA). Described as above. It counts as in vivo. To be noted: 312 h, 1000 g/ha, after 13 days, 100=total damage, 0=no damage, read-out: Percentage damage caused to weed species SETFA. On the procedure: as §1, with “8 days” for “one day”
as §3
As for `COC(=O)c1nc(-c2cccnc2OC)nc(N)c1Cl` [Compound 2-154, 4-Amino-5-chloro-6-methoxycarbonyl-2-(2-methoxypyridin-3-yl)-pyrimidine], the pest or weed control at 1000 g/ha was determined as 0%.
Regarding `COC(=O)c1nc(-c2ccc(OC)nc2)nc(N)c1Cl` [Compound 2-155, 4-Amino-5-chloro-6-methoxycarbonyl-2-(2-methoxypyridin-5-yl)-pyrimidine], the pest or weed control at 1000 g/ha was 80%.

In the next assay the test system is Solanum nigrum (SOLNI). Described as above. It counts as in vivo. To be noted: 312 h, 1000 g/ha, after 13 days, 100=total damage, 0=no damage, read-out: Percentage damage caused to weed species SOLNI. Here is the method:
as §1, with “8 days” for “one day”
as §3
With `COC(=O)c1nc(-c2cccnc2OC)nc(N)c1Cl` [Compound 2-154, 4-Amino-5-chloro-6-methoxycarbonyl-2-(2-methoxypyridin-3-yl)-pyrimidine], the pest or weed control at 1000 g/ha came out at 30%.
On the same count and under the same terms, the same measure for `COC(=O)c1nc(-c2ccc(OC)nc2)nc(N)c1Cl` [Compound 2-155, 4-Amino-5-chloro-6-methoxycarbonyl-2-(2-methoxypyridin-5-yl)-pyrimidine]: 70%.

For the origin of these results see US20110136666A1, “CHEMICAL COMPOUNDS” (SYNGENTA CROP PROTECTION, INC., priority 2008, published 2011).
